Data published in patent US20110212176A1, “CICLOPIROX AND CYTARABINE FOR THE TREATMENT OF LEUKEMIC DISORDERS” (priority 2008, published 2011).
Entries after “also recorded” stand apart in the source; their conditions may differ.

Assays:
leukemia cell lines = experiment: MTS cell viability assay in leukemia/lymphoma cell lines; assay type: cell-based; conditions: increasing concentrations, 72 hours
Description: Leukemia (HL-60, RSV411, k562, Jurkat, U937), LYMPHOMA (MDAY-D2), solid tumour cell lines (PPC-1, HeLa, OVCAR-3, DU-145, HT-29) and GMO5757 human lung fibroblasts were cultured in RPMI 1640 medium. HepG2 hepatoma cells and MRC5 human lung fibroblasts were grown in Dulbecco modified Eagle medium. OCI-M2, OCI-AML2 and NB4 leukemia cell lines and OPM2, KMS11, LP1, UTMC2, KSM18 and OCIMy5 myeloma cell lines were maintained in Iscove Modified Dulbecco Medium. LF1 human lung fibroblasts were maintained in HAM medium. All media were supplemented with 10% fetal calf serum, 100 μg/mL of penicillin, and 100 units/mL of streptomycin (all from Hyclone, Logan, Utah). The cells were incubated at 37° C. in a humidified air atmosphere supplemented with 5% CO2.
The CellTiter96 aqueous nonradioactive (MTS) assay was used to measure cell viability according to the manufacturer's instructions (Promega). Propidium iodide (PI) staining was used according to manufacturer's instructions (Biovision, Mountain view, Calif.).
From this chemical screen, the antimicrobial CPX was identified. CPX is currently used for the topical treatment of cutaneous fungal infections. As an anti-fungal agent, the mechanism of action of CPX is not well understood, but appears related to binding intracellular iron and inhibiting iron containing enzymes. […] 72 hours after incubation, cell viability was measured by the MTS assay. […]

[1] = test system: OCI-AML2, K562 human leukemia cells and MDAY-D2 murine leukemia cells; assay type: in vivo; conditions: CPX 25 mg/kg daily by oral gavage; all 3 mouse models
Description: MDAY-D2 (MDAY) murine leukemia cells (5×10^5) were injected intra-peritoneal into NOD/SCID mice (Ontario Cancer Institute, Toronto, ON), OCI-AML2 and K562 cells (2×10^6) were injected subcutaneously into both flanks of sub-lethally irradiated (3.5 Gy) NOD/SCID mice. Mice were then treated daily by oral gavages with CPX (25 mg/kg) in PBS or vehicle control. Tumour volume (tumour length×width^2×0.5236) (Mol Cancer Ther. 2004; 3:1239-1248) was measured weekly using calipers. Eight (MDAY-D2), 11 (OCI-AML2) or 30 (K562) days after injection of cells, mice were sacrificed, and the volume and weight of the tumours was measured. All animal studies were carried out according to the regulations of the Canadian Council on Animal Care and with the approval of the local ethics review board.
Given the effects in leukemia cells lines, the effects of oral CPX was evaluated in 3 mouse models of leukemia. Sublethally irradiated NOD-SCID mice were injected subcutaneously with OCI-AML2 or K562 human leukemia cells or intraperitoneally with MDAY-D2 murine leukemia cells. […].

survivin promoter = experiment: Survivin promoter luciferase reporter screen in HeLa cells; assay type: cell-based, human; conditions: 5 μM, 24 hours
Text: The full-length survivin promoter (−1059 upstream of the initiating ATG) (NIEHS-SNPs, Environmental Genome Project, NIEHS ES15478, Department of Genome Sciences, Seattle, Wash.) was isolated from HeLa genomic DNA using the forward primer 5′-[…]-3′ (SEQ ID NO:1) and the reverse primer 5′-[…]-3′ (SEQ ID NO:2).
The promoter was sub-cloned into the GL4.20 firefly luciferase reporter vector (Promega Corporation, Madison, Wis.). Clones were sequence-verified for orientation and integrity using a CEQ 8000 Genetic Analysis System (Beckman, Mississauga, ON, Canada). […]
(A) HeLa cells stably overexpressing the survivin promoter driving luciferase (15000 cells/well) were plated in 96-well plates. […] After incubation, survivin promoter activity was assessed by the luciferase assay described below. […]
Luciferase activity was measured according to the manufacturer's instructions and as previously described (Promega, Madison, Wis.) (Mao Blood). […] After 10-minutes incubation, an equal volume of Bright-Glo Luciferase substrate (Promega) was added, and the luminescence signal was detected with a 96-well Luminoskan luminescence plate reader (Thermo Fisher Scientific, Waltham, Mass.) with 5-seconds integration time. […]

[2] = test system: HeLa, PPC-1 and MDAY-D2 cells; experiment: Cell cycle analysis by PI staining and flow cytometry; assay type: cell-based; conditions: 5 μM CPX; eighteen hours; prior to the onset of cell death
Description: (§1) FIG. 5: Cell cycle arrest, survivin decrease and p53 increase precede CPX induced cell death. A) HeLa, PPC-1 and MDAY-D2 cells were treated with 5 μM CPX or buffer control. Eighteen hours after incubation, cell cycle was analyzed by PI staining and Flow cytometry. B) NB4 and OCI-M2 cell lines were incubated with CPX (5 μM) for 48 hours. After incubation cells were harvested and nuclear proteins were isolated. Levels of p53 and the nuclear protein glucocorticoid receptor (GR) were measured by immunoblotting. C) Solid tumor (OVCAR3, HT-29, HepG2, DU145, HeLa) and leukemia (OCI-M2, OCI-AML2, NB4, HL-6) cell lines were treated with CPX (2.5 μM) or buffer control for 48 hours. After incubation, total protein was isolated. Levels of survivin and GAPDH were measured by immunoblotting.
Cell-cycle analysis was performed as previously described (Blood 112(3):760). Briefly, cells were harvested, washed with cold PBS, re-suspended in 70% cold ethanol, and incubated overnight at −20° C. Cells were then treated with 100 ng/mL of DNase-free RNase (Invitrogen, Carlsbad, Calif.) at 37° C. for 30 minutes, washed with cold PBS, and re-suspended in PBS with 50 μg/mL of PI (Sigma). DNA content was analyzed by flow cytometry (FACSCalibur; BD Biosciences, San Jose, Calif.).

[3] = test system: survivin, Cyclin D1, YY1 and FTII-D; experiment: Immunoblotting of protein expression after CPX treatment; assay type: cell-based; conditions: prior to the onset of cell death
Description: as §1
Total cell lysates were prepared from cells. […] Protein concentrations were measured by the Bradford assay (Anal Biochem. 1996; 236:221-228). […]
Membranes were probed with polyclonal rabbit anti-human survivin (1 μg/mL) (NOVUS), monoclonal mouse anti-human p53 (0.5 μg/mL), polyclonal rabbit anti-human GR (0.5 μg/mL) both from (Santa Cruz Biotechnologies, CA), or with mouse anti-human GADPH (Trevigen, Gaithersburg, Md.). […] Detection was performed by the enhanced chemical luminescence method (Pierce, Rockford, Ill.).

Cc1cc(C2CCCCC2)n(O)c(=O)c1 [CPX, 6-Cyclohexyl-1-hydroxy-4-methyl-2(1H)-pyridone]
effect on cell viability (leukemia cell lines): decreased cell viability in all leukemia cell lines tested; also recorded: decreased cell viability in all leukemia and lymphoma cell lines
decrease in tumor volume compared to control [1]: up to 65%
decrease in tumor weight compared to control [1]: up to 65%
inhibition of survivin transactivation (luciferase expression) (survivin promoter): inhibitor of survivin transactivation
cell cycle effect [2]: arrested cells in the G1/S phase of the cell cycle
effect on protein expression [3]: down-regulated the expression of survivin, Cyclin D1, and the transcription factors YY1 and FTII-D
